Results: US11332483B2, “Naphthoquinone containing gold carbene complexes and methods of uses thereof” (BOARD OF REGENTS, THE UNIVERSITY OF TEXAS SYSTEM, priority 2017, dated 2022)
Like-named read-outs stand apart in the source and are kept apart here.

Key:
[1] = test system: A549 lung cancer cells; experiment: Cell proliferation (MTT) assay in A549 lung cancer cells; type: cell-based, human; settings: for Fold Difference relative to 1: A549 IC50 relative to complex 1
Procedure: (§1) Cells were harvested and seeded into 96-well culture plates (Costar 07-200-90) in 100 μL of culture media. They were allowed to incubate overnight at 37° C. in the presence of 5% CO2. A549 was seeded at a density of 1000 cells/well, A2780 at 2500 cells/well, A2780CP at 3000 cells/well, and PC-3 at 2000 cells/well. The next day, appropriate serial dilutions of drug stocks in culture media were made. To each well of a 96 well plate was added 100 μL of the appropriate solution. After a total of three days, a […] aliquot of 3 mg/mL tetrazolium dye, 344,5-dimethylthiazol-2-yl)-2,5-diphenyltetrazolium bromide (Alfa Aesar L11939) was added to each well, followed by a 4 hr incubation period at 37° C. The medium was then removed, the resulting formazan was dissolved in […] DMSO and the respective absorbances were measured at 560-650 nm using a microplate reader (Molecular Devices, Sunnyvale, Calif.). Absorbance values were corrected for background and then normalized to wells containing untreated cells to allow for plate-to-plate comparisons. The data are shown as mean inhibition of proliferation or growth as a percentage of control cells and are from 2-3 replicate experiments. Resulting dose response curves were subjected to linear regression analysis (Origin by OriginLab, Inc.) for determination of IC50 values.

[2] = test system: A549 lung cancer cells; experiment: ICP-MS detection of intracellular Au (cellular uptake)
Procedure: Roughly 7−8×10^6 cells were grown to 70-80% confluence in T-75 cell culture flasks (Thermo 130190) and treated with respective compound in RPMI medium supplemented with 10% FBS and antibiotics for the desired incubation time. The medium was then removed and cells were washed with 8 mL 1× warm PBS. 2 mL 1×PBS was then added to each flask, and the cells were removed by scraping. Each cell suspension was then pipetted into a clean, labeled 15 mL centrifuge tube (Thermo 339650). Cells were pelleted by centrifuging at 1,000 rpm for 5 min in an Eppendorf 5804 with a swing-bucket rotor. The supernatant was removed by vacuum aspiration, and the pellet was resuspended in 50 μL autoclaved deionized water. Suspension/lysates were then kept at −80° C. until further use. After thawing, the lysates were then sonicated using a Branson Digital Sonifier, and 5 μL aliquots were taken for determination of protein content of the sample. Lysates were digested with 80 μL aqua regia and heated to 65° C. for 1 h. Digested lysates were diluted with 4 mL 3% Trace Metal Grade HCl and gold content was measured on a Perkin Elmer NexION 300× set to detect gold at 197 m/z. Gold concentrations were quantified using the linear range of a standard curve generated by serial dilution of an ICP-MS gold standard (Ricca MSAU1KH-100) in 3% HCl. Values were then normalized to protein content as determined using a Modified Lowry Protein Assay Kit (Thermo 23240) and known concentrations of bovine serum albumin (Fisher 9048-46-8).
The Modified Lowry Assay was used to determine the protein content of each sample for normalization purposes. The standard curve for each run was made from a 2-fold serial dilution of fresh 5 mg/mL BSA solution. Aliquots were diluted to within the linear range of the standard curve using autoclaved DI water, and subjected to the Modified Lowry Assay in round-bottomed 96-well clear plates (Fisher 12565500). […] All other aspects of the procedure were as detailed in the microplate procedure instructions that come with the kit.

[3] = test system: A549 cells; experiment: Detection of intracellular ROS by flow cytometry (CM-H2DCFDA); type: cell-based, human; settings: for intracellular ROS increase: A549, dose responsive, 6 h, in words
Procedure: To establish whether or not the complexes of this disclosure would increase intracellular ROS levels, A549 cells were treated with each complex in a dose responsive manner.
Tumor cells (1×10^6) were plated in a 6-well plate overnight and then incubated with media containing various complexes described at concentrations of 0.625-2.5 μM. Control cells were treated with vehicle only. After a 6 h. incubation, the cells were washed with PBS, detached with 0.250 mL 1× trypsin, collected in a 15 mL conical tube, and pelleted by centrifugation (3 min @ 300 g) at 5° C. The resulting pellet was again washed 2× with cold PBS and pelleted at 5° C. […] The cells were then pelleted, washed with 2 mL PBS, and re-suspended in PBS containing 2 μg/mL propidium iodide (PI, Chemodex P0023) for a final cell concentration of 0.5×10^6 cells/mL. Control samples of unstained cells, cells stained with only CM-H2DCFDA, and cells stained with only PI were also prepared. Each sample was added to one well of a 96-well plate. Samples were then subjected to FACS analysis using a Millipore Guava easyCyte 8 and analyzed using the Guava inCyte software.

[4] = test system: thioredoxin reductase (TrxR) in A549 cells; experiment: Lipoate reduction assay of thioredoxin reductase activity in live cells; type: cell-based, human; settings: for inhibition of TrxR (lipoate reduction): 6 h; for TrxR activity by lipoate reduction, time and dose dependence: A549, in words
Procedure: To assess whether any or all of the present gold complexes could serve as TrxR inhibitors, standard tests involving the reduction of the oxidized form of the cell-permeable cofactor lipoate to its corresponding reduced form, dihydrolipoate, were carried out. […] [Cl] and 5 (cocktail), auranofin, and doxorubicin for 6 h. Post treatment, the live cells were monitored colorimetrically over 180 min for their ability to reduce lipoate (FIG. 5A).
Cells were harvested and seeded at a density of 10,000 cells/well A549 in 96-well culture plates. They were then incubated overnight at 37° C. and 5% CO2. The next day, appropriate serial dilutions of drug stock in culture media were performed, and 100 μL of the appropriate solution were added to each well. Cells were returned to the incubator for 6 h. Afterwards, the liquid was then removed from each well by vacuum aspiration and replaced by 100 μL of 5 mM lipoate (Tokyo Chemical Industry Co., Ltd. L0207) and 1 mM DTNB (Acros Organics 117540050) in HBSS (Life tech 14025-092). The absorbance of each well at […] was recorded immediately and once every 20 min for three h on a microplate reader (Molecular Devices, Sunnyvale, Calif.). Plates were covered with aluminum foil between readings.

[5] = Electrochemical analysis (differential pulse voltammetry) in DMSO; type: physicochemical; settings: 0.1M [N(nBu)4][PF6], 0.1 mM analyte, vs SCE
Procedure: [Cl] (Guth et al., 2011; Gómez et al., 2003).
1,3-Dimesitylnapthoquinimidazolium chloride (Sanderson et al., 2006; Tennyson et al., 2010), (1,3-dimesityl-4,5-naphthoquino-imidazol-2-ylidene)-silver(I) chloride (Sanderson et al., 2006; Tennyson et al., 2010), (C4H2S)AuCl (Hashmi, et al., 2010) were prepared according to the literature procedures. All other reagents were purchased from commercial sources and used as received, including: [((CH3)3Si)2N]Na (NaHMDS) and silver(I) oxide. CD2Cl2 (99.9%) was purchased from Acros Laboratories in glass ampules and used as received. Solvents were either dried with a solvent purification system from the Inert Innovative Technology, Inc. (dichloromethane, diethyl ether, hexanes, tetrahydrofuran and toluene) or freshly distilled over 3 Å molecular sieves and degassed using three consecutive freeze-pump-thaw cycles prior to use. UV-vis spectra were obtained at ambient temperature with a Hewlett-Packard 8452A diode array spectrophotometer with molar absorptivities reported in M^−1 cm^−1. ^1H and ^13C NMR spectra were recorded on Bruker 300 MHz spectrometer. Spectra were referenced to the residual solvent as an internal standard, for ^1H NMR: CD2Cl2, 5.32 ppm and ^13C NMR: CD2Cl2, 53.84 ppm. High-resolution mass spectra (HRMS) were obtained with an Agilent Technologies 6530 Accurate Mass Q-TOF LC/MS (ESI) and are reported as m/z (relative intensity). Electroanalytical measurements were performed on a CHI620E electrochemical workstation using a silver wire quasi-reference electrode, a platinum disk working electrode and a Pt wire auxiliary electrode in a three-electrode cell under an atmosphere of nitrogen. […] All potentials listed herein were determined by differential pulse voltammetry and referenced to a saturated calomel electrode (SCE) by shifting ferrocene^0/+ to 0.435 V (DMSO) (Aranzaes et al., 2006). Spectroelectrochemistry measurements were obtained at ambient temperature with a custom designed three-electrode cell using Hewlett-Packard 8452A diode array spectrophotometer and CHI620E. Elemental analyses were performed by Midwest Microlab, LLC in Indianapolis, Ind. […] Trypsin (Hyclone SH30236.01) and Dulbecco's Phosphate Buffer Saline (Sigma R5886) were used for general cell maintenance and harvesting. Cell lines were obtained from the ATCC (A549 and PC-3) and Prof. Zahid Siddik at MD Anderson (A2780 and A2780CP). Thiazolyl blue tetrazolium bromide (Alfa Aesar L11939) was used for cell proliferation assays. Cell culture plastic ware consisted of generic T-75 flasks, 80.5 mm diameter culture dishes, and treated 96-well plates.

[6] = test system: Panc-02 cells
[7] = test system: A2780 ovarian (wt-p53, platinum sensitive); experiment: Cell proliferation (MTT) assay in A2780 ovarian cells; type: cell-based; settings: Table 3; error is standard error of the mean
Procedure: (§2) Further anti-proliferation studies were carried out with complex 1 and its naphthoquinone component 4[H][Cl] using the following cell lines: A2780 ovarian (a wt-p53 cell line sensitive to platinum treatment), 2780CP ovarian (isogenic to A2780 but expressing multi-drug resistance (MDR)), and PC-3 prostate (p53 null) (Table 3).
as §1, with “The data are shown as mean inhibition of proliferation or growth as a percentage of control cells and are from 2-3 replicate experiments. Resulting dose response curves were subjected to linear regression analysis (Origin by OriginLab, Inc.) for determination of IC50 values.” left out

[8] = test system: 2780CP ovarian (multi-drug resistant); experiment: Cell proliferation (MTT) assay in 2780CP ovarian cells; type: cell-based; settings: Table 3; error is standard error of the mean
Procedure: as §2
as §1, with “The data are shown as mean inhibition of proliferation or growth as a percentage of control cells and are from 2-3 replicate experiments. Resulting dose response curves were subjected to linear regression analysis (Origin by OriginLab, Inc.) for determination of IC50 values.” left out

[9] = test system: PC-3 prostate (p53 null); experiment: Cell proliferation (MTT) assay in PC-3 prostate cells; type: cell-based; settings: Table 3; error is standard error of the mean
Procedure: as §2
as §1, with “The data are shown as mean inhibition of proliferation or growth as a percentage of control cells and are from 2-3 replicate experiments. Resulting dose response curves were subjected to linear regression analysis (Origin by OriginLab, Inc.) for determination of IC50 values.” left out

[10] = test system: A549 cells; settings: A549, 24 h
Procedure: Control cells were treated with vehicle only. At 24 h, the media was collected and the cells were washed with PBS. The PBS washing was collected and the attached cells were then subjected to 0.5× trypsin (diluted with PBS) for 2 min. All media and washings were collected, pelleted by centrifugation (3 min @ 300 g) and washed twice with cold PBS. […] After this, 100 μL of cell suspension was added to 1.5 mL centrifuge tubes, followed by 5 μL each of Annexin V-FITC and propidium iodide (PI, 50 μg/mL) solution. Control samples of unstained cells, cells stained with only Annexin V-FITC, and cells stained with only PI were also prepared. Samples were allowed to incubate in the dark for 15 min at ambient temperature. After incubation, each sample was diluted with 200 μL of Annexin V binding buffer, and the resulting 300 μL sample was added to one well of a 96-well plate. Samples were then subjected to FACS analysis using a Millipore Guava easyCyte 8 and analyzed using Guava inCyte software.

[11] = A549 lung cancer cells, MTT, 72 h, read-out: IC50
[12] = A549, low concentrations (0.1-0.6 μM)
[13] = A549, higher concentrations (1.25-5.0 μM)

Structure (SMILES) | Fold Difference relative to 1 [1] | IC50 [1, 11] [µM] | intracellular ROS increase [3] | inhibition of TrxR (lipoate reduction) [4, 12] | E1/2 (V) DPV, first reduction, formation of semiquinone radical [5] [V] | E1/2^b (V) DPV, second reduction, formation of quinone dianion [5] [V] | TrxR activity by lipoate reduction, time and dose dependence [4] | inhibition of TrxR (lipoate reduction) [4, 13] | also measured
CC(=O)OC[C@H]1O[C@@H]([S-])[C@H](OC(C)=O)[C@@H](OC(C)=O)[C@@H]1OC(C)=O.CCP(CC)CC.[Au+] [Auranofin, auranofin] | 22.9 | 1.67 ± 0.05 | minimal or no ROS increase | inhibition of TrxR was apparent | – | – | – | – | increase in intracellular Au concentrations as compared to complex 1 [2]: 2-5 fold
Cc1cc(C)c(-n2c3c([n+](-c4c(C)cc(C)cc4C)[c]2[Au-][c]2n(-c4c(C)cc(C)cc4C)c4c([n+]2-c2c(C)cc(C)cc2C)C(=O)c2ccccc2C4=O)C(=O)c2ccccc2C3=O)c(C)c1.[Cl-] [Compound 2] | 1 | – | performed similarly | – | −0.46 | −1.31 | performed similarly | – | presence of CRT on cells ([6]; Panc-02, 0.1 μM): 6.1±1.6 % of cells; presence of CRT on cells ([6]; Panc-02, 1.0 μM): 33.4±5.8 % of cells
Cc1cc(C)c(-n2c3c([n+](-c4c(C)cc(C)cc4C)[c]2[Au-][Cl])C(=O)c2ccccc2C3=O)c(C)c1 [Compound 3, (1,3-Dimesityl-4,5-naphthoquino-imidazol-2-ylidene)-gold(I) Chloride] | 165 | 12.1 | minimal or no ROS increase | – | −0.47 | −1.31 | – | remained inactive | intracellular Au levels (ICP-MS) [2]: no intracellular Au was detected
Cc1cc(C)c(-n2c[n+](-c3c(C)cc(C)cc3C)c3c2C(=O)c2ccccc2C3=O)c(C)c1.[Cl-] [Compound 4[H][Cl], 1,3-Dimesitylnaphthoquinimidazolium chloride, reference compound] | 13.6 | 0.99 ± 0.12 | – | – | −0.38 | −1.15 | – | became evident | IC50 ([1]; A549 lung cancer cells, MTT, 72 h, listed as 4, read-out: IC50): 0.994 µM; IC50 ([1]; Table 3, error is standard error of the mean, read-out: IC50 A549 Lung): 0.994 ± 0.12 µM; IC50 [7]: 0.159 ± 0.058 µM; IC50 [8]: 0.626 ± 0.117 µM; IC50 [9]: 0.136 ± 0.02 µM; fluorescence associated cell population shift (intracellular ROS increase) ([3]; A549, 2.5 μM, 6 h incubation): ~11 fold
COc1cccc2c1C(=O)c1c(O)c3c(c(O)c1C2=O)C[C@@](O)(C(=O)CO)C[C@@H]3O[C@H]1C[C@H](N)[C@H](O)[C@H](C)O1 [Doxorubicin, doxorubicin] | 1.41 | – | minimal or no ROS increase | little to no inhibition | – | – | no inhibition of activity | remained inactive | IC50 ([1]; Homo sapiens, A549 lung cancer cells, MTT, 72 h, read-out: IC50): 0.103 ± 0.023 µM; induction of apoptosis (annexin-V/PI) [10]: provided similar results in both the early and late stage apoptotic quadrants
O=C1[O][Pt]2([NH][C@@H]3CCCC[C@H]3[NH]2)[O]C1=O [oxaliplatin, reference compound] | – | – | – | – | – | – | – | – | presence of CRT on cells ([6]; Panc-02, 300 μM): 18.6±2.8 % of cells
